Earlier results as cited in US5399700A, “Method for preparing enteric-coated oral drugs containing acid-unstable compounds” (Sunkyong Industries Co., Ltd., priority 1991, dated 1995).
Read-outs that look alike come from different tables or passages of the source.

Legend:
[1] = Table 9
[2] = not given; remark: listed apart in the source

CC(C)CN [Isobutylamine]
pKa [1]: 10.42

CCCN [Propylamine]
pKa [1]: 10.57

CC(C)(C)N [Tert-butylamine]
pKa [1]: 10.87

CCCCN(CCCC)CCCC [Tributylamine]
pKa [1]: 10.87

COc1ccc2[nH]c([S+]([O-])Cc3ncc(C)c(OC)c3C)nc2c1 (stereo not shown) [omeprazole]
half-life (medium of below pH 4): 0.167 h
half-life (pH 6.8): 18 h
half-life (pH 11): about 300 days

OC[C@H]1O[C@@H]2O[C@H]3[C@H](O)[C@@H](O)[C@@H](O[C@H]4[C@H](O)[C@@H](O)[C@@H](O[C@H]5[C@H](O)[C@@H](O)[C@@H](O[C@H]6[C@H](O)[C@@H](O)[C@@H](O[C@H]7[C@H](O)[C@@H](O)[C@@H](O[C@H]1[C@H](O)[C@H]2O)O[C@@H]7CO)O[C@@H]6CO)O[C@@H]5CO)O[C@@H]4CO)O[C@@H]3CO [α-CD, α-cyclodextrin]
Ring-opening Half-life ([2]; 1n hcl): 6.2 h

OC[C@H]1O[C@@H]2O[C@H]3[C@H](O)[C@@H](O)[C@@H](O[C@H]4[C@H](O)[C@@H](O)[C@@H](O[C@H]5[C@H](O)[C@@H](O)[C@@H](O[C@H]6[C@H](O)[C@@H](O)[C@@H](O[C@H]7[C@H](O)[C@@H](O)[C@@H](O[C@H]8[C@H](O)[C@@H](O)[C@@H](O[C@H]1[C@H](O)[C@H]2O)O[C@@H]8CO)O[C@@H]7CO)O[C@@H]6CO)O[C@@H]5CO)O[C@@H]4CO)O[C@@H]3CO [β-CD, β-cyclodextrin]
Ring-opening Half-life ([2]; 60° C., 1N HCl): 5.4 h

OC[C@H]1O[C@@H]2O[C@H]3[C@H](O)[C@@H](O)[C@@H](O[C@H]4[C@H](O)[C@@H](O)[C@@H](O[C@H]5[C@H](O)[C@@H](O)[C@@H](O[C@H]6[C@H](O)[C@@H](O)[C@@H](O[C@H]7[C@H](O)[C@@H](O)[C@@H](O[C@H]8[C@H](O)[C@@H](O)[C@@H](O[C@H]9[C@H](O)[C@@H](O)[C@@H](O[C@H]1[C@H](O)[C@H]2O)O[C@@H]9CO)O[C@@H]8CO)O[C@@H]7CO)O[C@@H]6CO)O[C@@H]5CO)O[C@@H]4CO)O[C@@H]3CO [γ-CD]
Ring-opening Half-life ([2]; 60° C., 1N HCl): 3.0 h
